The values below come from ChEMBL document CHEMBL1150095, “Antitumor activity and stereochemistry of acetylenic alcohols from the sponge Cribrochalina vasculum” (1995).

Assay [1] relates to NCI-H522. In words: Antitumor activity against human NCI-H522 cells. The format is functional.
Assay [2] has as its system IGROV-1. The experiment in a line: Antitumor activity against human IGROV1 cells. Type of assay: functional.

Active and inactive are the calls of the source. The rule behind the calls is not given here.

As to `C#C[C@@H](O)/C=C/CCCCCCCCC(C)CCCCCCCC` (some centres not stated), the result in assay [1] and in assay [2] was Active.
